We go through 16 molecules from ChEMBL document CHEMBL1156304, “Pyridinyl aminohydantoins as small molecule BACE1 inhibitors” (Bioorg Med Chem Lett, 2010).

Test [1] in a line: Selectivity ratio of IC50 for BACE2 to IC50 for BACE1.
For a further test, the target named is T1, Beta-secretase 2 (Homo sapiens, UniProt Q9Y5Z0).
T1 sequence (Q9Y5Z0 whole entry): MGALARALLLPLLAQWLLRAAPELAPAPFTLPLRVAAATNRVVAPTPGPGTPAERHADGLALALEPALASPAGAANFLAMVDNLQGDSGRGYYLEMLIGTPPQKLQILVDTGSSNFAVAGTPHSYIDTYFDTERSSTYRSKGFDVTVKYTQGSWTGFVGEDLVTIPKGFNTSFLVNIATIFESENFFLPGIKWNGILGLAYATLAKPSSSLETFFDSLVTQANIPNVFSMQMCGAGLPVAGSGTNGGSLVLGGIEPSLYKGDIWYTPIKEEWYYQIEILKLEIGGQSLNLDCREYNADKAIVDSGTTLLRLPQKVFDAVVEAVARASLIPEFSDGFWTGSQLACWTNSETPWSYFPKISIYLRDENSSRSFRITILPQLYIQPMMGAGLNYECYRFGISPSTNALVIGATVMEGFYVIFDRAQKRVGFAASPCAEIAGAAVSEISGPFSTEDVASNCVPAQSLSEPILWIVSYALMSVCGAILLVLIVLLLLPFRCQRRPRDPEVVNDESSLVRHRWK
As to the kind of experiment: Inhibition of BACE2 by FRET assay.

The next test concerns the target Cathepsin D (Homo sapiens, UniProt P07339). As to the kind of experiment: Inhibition of cathepsin D by FRET assay.
The target of the next test is Beta-secretase 1 (Homo sapiens, UniProt P56817). As to the kind of experiment: Inhibition of BACE1 by FRET assay.
Chain of Beta-secretase 1 (P56817 whole entry): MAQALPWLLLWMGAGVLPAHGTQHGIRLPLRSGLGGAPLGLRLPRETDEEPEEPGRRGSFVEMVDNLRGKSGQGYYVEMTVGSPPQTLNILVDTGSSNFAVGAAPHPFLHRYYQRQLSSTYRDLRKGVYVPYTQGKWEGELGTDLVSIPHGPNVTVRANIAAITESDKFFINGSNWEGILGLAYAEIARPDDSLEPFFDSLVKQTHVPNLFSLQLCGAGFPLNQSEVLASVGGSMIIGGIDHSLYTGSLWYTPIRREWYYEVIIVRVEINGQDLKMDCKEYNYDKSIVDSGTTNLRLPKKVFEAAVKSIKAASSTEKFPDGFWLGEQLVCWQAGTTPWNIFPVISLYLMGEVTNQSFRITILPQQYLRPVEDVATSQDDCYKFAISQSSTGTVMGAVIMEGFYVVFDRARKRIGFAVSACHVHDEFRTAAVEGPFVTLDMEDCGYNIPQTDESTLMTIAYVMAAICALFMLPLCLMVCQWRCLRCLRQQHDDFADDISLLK

Chain of Cathepsin D (P07339 65-162 limits assumed): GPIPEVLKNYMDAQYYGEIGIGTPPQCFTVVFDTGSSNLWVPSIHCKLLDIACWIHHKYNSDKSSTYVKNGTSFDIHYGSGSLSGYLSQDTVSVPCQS
Chain of Cathepsin D (P07339 169-412 limits assumed): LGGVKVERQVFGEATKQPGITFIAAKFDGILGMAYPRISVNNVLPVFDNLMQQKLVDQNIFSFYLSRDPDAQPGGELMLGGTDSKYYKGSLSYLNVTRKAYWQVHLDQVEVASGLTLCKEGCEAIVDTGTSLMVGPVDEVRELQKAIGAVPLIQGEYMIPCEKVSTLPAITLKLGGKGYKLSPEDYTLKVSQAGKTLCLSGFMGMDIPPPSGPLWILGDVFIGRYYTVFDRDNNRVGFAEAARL

The term IC50 denotes the concentration that inhibits the measured activity by half. Regarding `CN1C(=O)C(c2ccncc2)(c2cccc(-c3cccc(F)c3)c2)N=C1N` (configuration not stated), in test [1], the Ratio IC50 came out at 1.6. Besides, the results for the IC50 at Beta-secretase 2, on Cathepsin D and against Beta-secretase 1 were 0.08 µM, 20.8 µM and 0.05 µM, respectively.
For the molecule `CN1C(=O)C(c2ccncc2)(c2cccc(-c3cc(F)ccc3F)c2)N=C1N` (racemic), the IC50 against Beta-secretase 2 was determined as 0.12 µM; against Cathepsin D it was 9.4 µM.
With `CN1C(=O)[C@](c2ccncc2)(c2cccc(-c3cc(F)ccc3F)c2)N=C1N`, the IC50 against Beta-secretase 2 came out at 0.7 µM; against Cathepsin D it was 26.4 µM.
For `CN1C(=O)C(c2ccncc2)(c2cccc(-c3ccsc3)c2)N=C1N` (configuration not stated) the same measures were 0.19 µM and 31.6 µM.
Take `CN1C(=O)C(c2ccncc2)(c2cccc(-c3ccccc3)c2)N=C1N` (configuration not stated): the Ratio IC50 in test [1] is 1.1.
Consider `CN1C(=O)C(c2ccncc2)(c2cccc(-c3cccc(OC(F)(F)F)c3)c2)N=C1N` (configuration not stated), for which the Ratio IC50 in test [1] amounted to 0.6. Besides, the IC50 was 0.14 µM at Beta-secretase 2, 14.1 µM against Cathepsin D and 0.25 µM against Beta-secretase 1.
On the same counts, the results for `CN1C(=O)C(c2ccncc2)(c2cccc(-c3cc(F)cc(F)c3)c2)N=C1N` (configuration not stated) are 1, 0.06 µM, 34.1 µM and 0.06 µM.
Consider `CN1C(=O)C(c2ccccc2)(c2ccncc2)N=C1N` (configuration not stated), for which the Ratio IC50 in test [1] is 0.8.
As to `COc1cccc(-c2cccc(C3(c4ccncc4)N=C(N)N(C)C3=O)c2)c1` (configuration not stated), in test [1], the Ratio IC50 came to 0.7. Moreover, the IC50 was 0.02 µM at Beta-secretase 2, 12.2 µM on Cathepsin D and 0.03 µM on Beta-secretase 1.
Regarding `CN1C(=O)C(c2ccncc2)(c2cccc(-c3cccnc3F)c2)N=C1N` (configuration not stated), the Ratio IC50 in test [1] is 33. For the same molecule, the IC50 came out at 1 µM against Beta-secretase 2, 17.4 µM against Cathepsin D and 0.03 µM at Beta-secretase 1.
In the case of `CN1C(=O)C(c2ccncc2)(c2cccc(-c3ccoc3)c2)N=C1N` (configuration not stated), the values for the IC50 on Beta-secretase 2 and at Cathepsin D were 0.57 µM and 46.8 µM, respectively.
On the same counts, the results for `CN1C(=O)[C@@](c2ccncc2)(c2cccc(-c3cc(F)ccc3F)c2)N=C1N` are 0.1 µM and 5.5 µM.
Take `CN1C(=O)C(c2ccncc2)(c2cccc(-c3cccnc3)c2)N=C1N` (configuration not stated): the Ratio IC50 in test [1] is 8.
As for `CN1C(=O)C(c2ccncc2)(c2cccc(-c3cccc(F)c3F)c2)N=C1N` (configuration not stated), the Ratio IC50 in test [1] was found to be 3.3. In addition, the IC50 amounted to 0.13 µM on Beta-secretase 2, 13.1 µM against Cathepsin D and 0.04 µM against Beta-secretase 1.
For `CN1C(=O)C(c2ccncc2)(c2cccc(-c3cnccn3)c2)N=C1N` (configuration not stated), the IC50 on Beta-secretase 2 came out at 1.01 µM. This counts as single-digit micromolar.
On to `CN1C(=O)C(c2ccncc2)(c2cccc(-c3cccc(C#N)c3)c2)N=C1N` (configuration not stated), for which the Ratio IC50 in test [1] was determined as 1. Moreover, the IC50 against Beta-secretase 2 was 0.04 µM; against Cathepsin D, 24.2 µM; against Beta-secretase 1 it was 0.04 µM.
